Key:
[1] = test system: NIH3T3; experiment: Effect of plating time on uptake of NAC-MTN and MTN, fluorescence (Example 11); type: cell-based, mouse; conditions: cells treated <1 hour after plating
Experimental: The effect of plating time on the differential rates of uptake between NAC-MTN and MTN were assayed in cells treated <1 hour and 24 hours after plating.
On day 1, MCF7, COS7, 3T3, and BHK21 cells were plated out in a standard tissue culture plate. After incubation of 20 minutes samples were added to cells in rows A, C, E, and G. Cells were incubated at 37C in a standard atmosphere of 5%CO2.
On day 2, samples were added to rows D, F, and H and the fluorescence was obtained EX620/EM680 S=80. Samples were removed from A,C,E and G, replaced with media and fluorescence read again. On day 2 observed significant drug toxicity in cells of rows A,C, E, G. Sample addition was postponed in row B since MCF7 were not yet confluent.
On day 3, added samples to cells in row B containing confluent MCF7's, removed samples from rows D, F, and H replaced with media and read fluorescence.
Fluorescence data from cells taken after removal of media was used to quantitate total MTN retained in the cells. Fluorescence data were converted to mg/ml MTN using a standard curve prepared with free MTN or NAC-MTN.
The percentage difference in fluorescence between cells treated with NAC-MTN or MTN alone was used to compare relative drug uptake.

[2] = Column chromatography determination of drug loading limit of NAC-drug; type: physicochemical; conditions: Drug only (MTN, no carrier)
Text: In a dosage form suitable for parenteral administration, the nucleic acid can be combined with the drug in an aqueous formulation of saline, dextrose or other suitable aqueous vehicle suitable for administration. It is preferred that the drug and the nucleic acid are combined in water or other suitable medium, prior to dilution in saline or media, in order to prevent inhibition of drug binding to the nucleic acid. The dosage form can be sterilized by a variety of means, and can optionally take the form of a concentrate that can be diluted in saline or other suitable vehicle prior to injection. It is preferred to minimize the amount of free drug in the injectable solution, such that the mass ratio of nucleic acid to drug is sufficient to bind most of the drug, and to limit free drug in the bloodstream. […] The percentage loading possible for other nucleic acid binding drugs will vary depending on their binding characteristics, and can be determined by column chromatography, spectrophotometry, and cytotoxicity assay methods as described herein. […]
Determination of drug loading limit of mitoxantrone (MTN) in a nucleic acid carrier (NAC) using a 2.5×9 cm G25 column (EX031904) and herring sperm DNA (HSDNA approx. range 10-100 bp Sigma-Aldrich). […] Collected 5 ml and checked absorbance scan of 0.2 ml sample on Synergy HT1. […] Collected 7.5 ml and read absorbance scan of 0.2 ml sample. […]

With O=C1c2c(O)ccc(O)c2C(=O)c2c(NCCNCCO)ccc(NCCNCCO)c21 [MTN, mitoxantrone] the “FLUOR (MTN fluorescence in cells)” value [1] was 18530 and the “G25 Column Results” value [2] was “Single band, slow”.

From patent US20070225213A1, “Nucleic acid carriers for delivery of therapeutic agents” (priority 2006, published 2007)
